Article PMC9733664 (Blood cells, molecules & diseases, 2021)

Assays:
Class I HDAC (HDAC 1-3) = assay: In vitro HDAC inhibition assay; format: biochemical
HDAC6 = biological target: T1, HDAC6 (Homo sapiens, UniProt Q9UBN7); assay: In vitro HDAC inhibition assay; format: biochemical; settings: 10-dose IC50 mode
T1 sequence (Q9UBN7 1-1215): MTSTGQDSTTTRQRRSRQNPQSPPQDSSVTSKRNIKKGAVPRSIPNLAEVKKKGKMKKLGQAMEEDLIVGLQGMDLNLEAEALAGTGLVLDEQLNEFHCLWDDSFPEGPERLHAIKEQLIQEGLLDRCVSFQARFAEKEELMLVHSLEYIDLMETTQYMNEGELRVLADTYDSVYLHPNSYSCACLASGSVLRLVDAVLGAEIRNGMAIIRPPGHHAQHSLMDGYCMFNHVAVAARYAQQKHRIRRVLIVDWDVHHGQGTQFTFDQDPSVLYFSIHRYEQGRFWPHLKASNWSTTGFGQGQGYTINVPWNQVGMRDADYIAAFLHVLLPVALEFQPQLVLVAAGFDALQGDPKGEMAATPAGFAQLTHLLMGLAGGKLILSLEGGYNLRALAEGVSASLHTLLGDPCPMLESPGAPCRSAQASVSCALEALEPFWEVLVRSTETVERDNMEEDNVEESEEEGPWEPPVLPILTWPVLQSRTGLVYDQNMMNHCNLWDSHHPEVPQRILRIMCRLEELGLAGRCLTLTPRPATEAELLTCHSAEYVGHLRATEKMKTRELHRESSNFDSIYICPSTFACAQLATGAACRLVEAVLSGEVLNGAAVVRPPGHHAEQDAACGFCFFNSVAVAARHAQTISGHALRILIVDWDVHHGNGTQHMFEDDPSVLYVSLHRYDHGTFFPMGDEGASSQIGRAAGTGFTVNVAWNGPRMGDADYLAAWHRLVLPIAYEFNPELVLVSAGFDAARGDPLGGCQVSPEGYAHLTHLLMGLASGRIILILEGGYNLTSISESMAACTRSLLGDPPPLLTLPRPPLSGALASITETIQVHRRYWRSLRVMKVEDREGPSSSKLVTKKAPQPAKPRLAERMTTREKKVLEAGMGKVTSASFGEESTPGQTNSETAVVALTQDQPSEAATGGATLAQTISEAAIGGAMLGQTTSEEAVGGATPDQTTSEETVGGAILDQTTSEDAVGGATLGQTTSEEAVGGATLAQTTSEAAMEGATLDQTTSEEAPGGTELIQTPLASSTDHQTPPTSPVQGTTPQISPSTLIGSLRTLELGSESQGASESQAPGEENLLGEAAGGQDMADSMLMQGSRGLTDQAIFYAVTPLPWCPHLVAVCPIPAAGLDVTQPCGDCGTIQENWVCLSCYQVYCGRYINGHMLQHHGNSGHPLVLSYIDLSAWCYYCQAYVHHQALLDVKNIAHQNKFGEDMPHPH

[1] = system: Class IIa and Class IV HDAC isoforms; assay: In vitro HDAC inhibition assay; format: biochemical; settings: 10-dose IC50 mode
[2] = system: γ-globin mRNA in K562 cells; assay: γ-globin mRNA induction in K562 cells; format: cell-based, human; settings: 48 h, CT108 3 μM, CT-101 5 μM, ST-20 20 μM, valproic acid 1 mM and 2 mM, vs control
K562 cells = assay: Cell growth/proliferation of K562 cells; format: cell-based, human; settings: over the concentration range tested
[3] = system: γ-globin and β-globin mRNA in SCD erythroid progenitors; assay: Globin mRNA in sickle erythroid progenitors; format: cell-based, human; settings: for increase in γ-globin mRNA: day 7 to day 12, n = 6 SCD subjects, vs vehicle
[4] = system: SCD erythroid progenitors; assay: Erythroid maturation and growth of sickle erythroid progenitors; format: cell-based, human; settings: 5 days of treatment (day 12)
[5] = system: HbF and HbS protein in SCD erythroid progenitors; assay: Western blot for HbF and HbS protein in sickle erythroid progenitors; format: cell-based, human
[6] = system: HbF in SCD erythroid progenitors; assay: Flow cytometry for F-cells and HbF MFI in sickle erythroid progenitors; format: cell-based, human; settings: for mean F-cells: vehicle 5.8%
[7] = system: acetylated histone H3 (acH3); assay: Western blot for nuclear acetylated histone H3 in sickle erythroid progenitors; format: cell-based, human
[8] = system: acH3 and RNA PolII at γ-globin promoter, β-globin promoter, LCR-HS2; format: cell-based, human; settings: for RNA PolII and acH3 chromatin enrichment in the LCR-HS2: Fig. 5E
HbF [9] = settings: SCD patients, intravenous; cited from earlier work
HDACs 1-9, and 11 = assay: In vitro HDAC inhibition assay, profile over all isoforms tested; settings: heat map Fig. 1A
HbF [10] = settings: three patients with Hodgkin's lymphoma, 3 months of therapy; cited from earlier work
[11] = nine SCD subjects, 10 mg per day, 3 days per week; ref NCT01245179; cited from earlier work

CCCCCCCC(=O)SCC/C=C/[C@@H]1CC(=O)NCc2nc(cs2)C2=N[C@@](C)(CS2)C(=O)N[C@@H](C(C)C)C(=O)N1 [CT-101]
IC50 (Class I HDAC (HDAC 1-3); read-out: IC50 as Class I HDACi, lowest level over Class I isoforms): ≥ 4 nM | IC50 for HDAC 1-3 (Class I HDAC (HDAC 1-3); singlet 10-dose IC50 mode, 3-fold serial dilution, active free thiol form tested): nanomolar concentrations | inhibition of HDAC6 (HDAC6): Some inhibition | inhibition of Class IIa and Class IV isoforms [1]: little to no inhibition | γ-globin mRNA / HbF expression induction [2]: 11 fold | cell proliferation (K562 cells): did not inhibit cell proliferation | increase in γ-globin mRNA ([3]; 100 nM): 3.9 fold | increase in γ-globin mRNA ([3]; 200 nM): 7 fold | β-globin transcription ([3]; sickle erythroid progenitors): did not alter | decrease in number of orthochromatic erythroid cells ([4]; 100 nM): 42% | decrease in number of orthochromatic erythroid cells ([4]; 200 nM): 56% | HbF level increase by Western blot ([5]; 200 nM, vs untreated control progenitors, p < 0.01): up to 1.7 fold | HbS protein level ([5]; Western blot, Fig. 3C): not significantly changed | mean F-cells ([6]; 100 nM, p < 0.01): 8.1% | mean F-cells ([6]; 200 nM, p < 0.001): 7.4% | mean increase in the proportion of F-cells ([6]; vs DMSO vehicle controls, same subject): 30% | increase in acH3 level ([7]; 100 nM, n = 6): 1.8 fold | increase in acH3 level ([7]; 200 nM, n = 6): 2.0 fold | acH3 chromatin enrichment in the γ-globin promoter ([8]; CT-101 100 mM and 200 nM, 48 h): 3.8 fold | RNA PolII and acH3 chromatin enrichment in the LCR-HS2 [8]: increased | RNA PolII and acH3 chromatin enrichment in the β^s-globin proximal promoter ([8]; vs vehicle treated cells): not changed

NC(=O)NO [HU, hydroxyurea, reference compound]
HbF level increase by Western blot ([5]; HU 75 μM, vs untreated control): 1.3 fold

CCCC(=O)O.CCCC(=O)O.CCCC(=O)O.CCCC(=O)O.N=C(N)NCCC[C@H](N)C(=O)O.N=C(N)NCCC[C@H](N)C(=O)O.N=C(N)NCCC[C@H](N)C(=O)O [arginine butyrate]
enhancement of HbF levels (HbF [9]): 3 fold

O=C(/C=C/c1cccc(S(=O)(=O)Nc2ccccc2)c1)NO [belinostat]
HDAC isoform inhibition profile / selectivity (HDACs 1-9, and 11): inhibited most HDAC isoforms to some degree

Cc1[nH]c2ccccc2c1CCNCc1ccc(/C=C/C(=O)NO)cc1 [panobinostat]
increase in HbF (HbF [10]): 2 fold | tolerability [11]: without dose limiting or serious adverse effects | HDAC isoform inhibition profile / selectivity (HDACs 1-9, and 11): inhibited most HDAC isoforms to some degree

CCCC(=O)[O-].[Na+] [sodium butyrate, reference compound]
decrease of β-globin mRNA level ([3]; sodium butyrate 0.2 μM, day 7 to day 12): 80% | HbF level increase by Western blot ([5]; sodium butyrate 0.2 μM, vs untreated control): 1.4 fold | increase in acH3 level ([7]; sodium butyrate): 3 fold | RNA PolII and acH3 chromatin enrichment in the LCR-HS2 [8]: increased
